Measured values reported in publication PMC3197159, “The Atypical Stimulant and Nootropic Modafinil Interacts with the Dopamine Transporter in a Different Manner than Classical Cocaine-Like Inhibitors” (PLoS ONE, 2011).

What was measured:
NET = tested on: NET; design: method as in Madras et al. (2006) 53; conditions: ref Madras et al. (2006) 53; read-out: IC50, inhibition of noradrenaline uptake by the NET; cited from earlier work
WT human DAT = WT human DAT (Homo sapiens, UniProt Q01959); assay: [3H]CFT binding inhibition, intact HEK293 cells expressing WT hDAT; conditions: inhibition by cold β-CFT
WT human DAT, sequence (Q01959 whole entry): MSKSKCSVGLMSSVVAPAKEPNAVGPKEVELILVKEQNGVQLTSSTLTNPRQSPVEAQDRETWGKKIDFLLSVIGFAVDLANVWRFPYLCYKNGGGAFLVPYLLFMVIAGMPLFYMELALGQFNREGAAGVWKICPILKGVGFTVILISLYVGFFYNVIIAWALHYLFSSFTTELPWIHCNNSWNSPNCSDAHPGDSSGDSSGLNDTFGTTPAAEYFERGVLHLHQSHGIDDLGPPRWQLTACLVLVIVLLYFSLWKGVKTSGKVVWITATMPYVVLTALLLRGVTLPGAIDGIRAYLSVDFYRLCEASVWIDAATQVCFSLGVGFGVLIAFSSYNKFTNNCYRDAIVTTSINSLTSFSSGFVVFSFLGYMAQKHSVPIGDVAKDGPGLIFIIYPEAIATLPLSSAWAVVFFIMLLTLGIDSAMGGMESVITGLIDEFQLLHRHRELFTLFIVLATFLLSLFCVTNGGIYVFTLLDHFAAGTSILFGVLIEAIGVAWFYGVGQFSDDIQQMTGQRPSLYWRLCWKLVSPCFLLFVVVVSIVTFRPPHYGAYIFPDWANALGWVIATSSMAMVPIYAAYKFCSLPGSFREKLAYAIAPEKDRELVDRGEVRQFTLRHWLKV

Row | SMILES | IC50 (NET) [µM] | Bmax of [3H]CFT binding, sodium-free + Zn2+ (WT human DAT; sodium-free conditions with 10 µM Zn2+) [fmole/well] | Bmax of [3H]CFT binding, sodium-free (WT human DAT; sodium-free conditions, no Zn2+) [fmole/well]
2 | COC(=O)C1C(c2ccc(F)cc2)CC2CCC1N2C (stereo not drawn) [β-CFT] |  | 502±78 | 125±15.8
